Measurements as given in article PMC9376960, “Ruthenium(II)–Tris-pyrazolylmethane Complexes Inhibit Cancer Cell Growth by Disrupting Mitochondrial Calcium Homeostasis” (Journal of Medicinal Chemistry, 2022).

Assays:
[1] = Solubility in water (D2O) by 1H NMR; format: physicochemical; settings: D2O, 21°C; sum of chloro and aquo complex after 2 h; 1H NMR, Me2SO2 standard
Procedure: A suspension of the selected ruthenium complex (3–5 mg) in a D2O solution (0.7 mL) containing Me2SO2 as the internal standard[115] (3.36 × 10^–3 M) was vigorously stirred at 21 °C for 2 h. The resulting saturated solution was filtered over celite, transferred into an NMR tube, and analyzed by ^1H NMR and ^31P NMR spectroscopy (delay time = 3 s; number of scans = 20). The concentration (solubility) was calculated by the relative integral (starting complex + aquo complex, C^βH signal in the ^1H spectrum) with respect to Me2SO2 (δ/ppm = 3.14). NMR data are given in the Supporting Information (Figures S36–S47).

[2] = Octanol/water partition coefficient, shake-flask, UV-vis; format: physicochemical
Procedure: Partition coefficients (Pow); IUPAC: […] A stock solution of the selected ruthenium compound (ca. 2 mg) was prepared by first adding MeOH (50 μL, to help solubilization), followed by octanol-saturated water (2.5 mL). The solution was diluted with octanol-saturated water (ca. 1:3 v/v ratio, cRu ≈ 10^-4 M, so that 1.5 ≤ A ≤ 2.0 at λmax), and its UV-vis spectrum was recorded (Aaq^0). An aliquot of the solution (Vaq = 1.2 mL) was transferred into a test tube, and water-saturated octanol (Vorg = Vaq = 1.2 mL) was added. […] The UV-vis spectrum of the aqueous phase was recorded (Aaq^f), and the partition coefficient was calculated as Pow = ([…], where […] are the absorbances in the aqueous phase before and after partition with the organic phase, respectively.[118] For 1, an inverse procedure was followed, starting from a solution of the compound in water-saturated octanol. The partition coefficient was calculated as Pow = Aorg^f/(Aorg^0 - Aorg^f), where Aorg^0 and Aorg^f are the absorbances in the organic phase before and after partition with the aqueous phase, respectively. The wavelength of the maximum absorption of each compound (280-380 nm range) was used for UV-vis quantitation. The procedure was repeated three times for each sample (from the same stock solution); the results are given as mean ± standard deviation (Table 2).

[3] = Stability and chloride/water exchange in D2O (NMR); format: physicochemical
Procedure: The same samples prepared at point (a) were used in this experiment, apart from complex 1 that was dissolved in DMSO-d6/D2O 4:1 v/v solution (0.7 mL; [Ru] = approx. […]) containing Me2SO2 as the standard.[115] After ^1H and ^31P{^1H} NMR analyses described above at point (a) (time = t0), samples were heated at 37 °C for 48 h. After cooling to room temperature, ^1H and ^31P NMR spectra were recorded. The percentage of starting complex + related aquo complex was calculated by the relative integral (C^βH signal in the ^1H spectrum) with respect to Me2SO2 (c = 3.3 × 10^–3 mol·L^–1; δ/ppm = 3.14 in D2O; δ/ppm = 2.95 in DMSO-d6/D2O 4:1 v/v), see Table 2 and S1.

[4] = Stability and speciation in deuterated cell culture medium (DMEM-d/DMSO-d6, NMR); format: physicochemical
Procedure: Powdered DMEM cell culture medium (1000 mg/L glucose and L-glutamine, without sodium bicarbonate and phenol red; D2902; Sigma-Aldrich) was dissolved in D2O (10 mg/mL), according to the manufacturer’s instructions. The solution of deuterated cell culture medium (“DMEM-d”) was treated with Me2SO2 (6.6 × 10^–3 M) and NaH2PO4/Na2HPO4 (0.10 M, pD = 7.5)[120]−[122] and then stored at 4 °C under N2. The selected ruthenium compound (2–3 mg) was dissolved in DMSO-d6 (0.14 mL; 0.18 mL for 4) and then diluted with DMEM-d up to 0.75 mL total volume (cRu ca. 4 × 10^–3 M). The mixture was stirred for 30 min, then filtered over celite, and transferred into an NMR tube. The resulting yellow solution was analyzed by ^1H and ^31P NMR (delay time = 3 s; number of scans = 20) and then heated at 37 °C for 24 h. After cooling to room temperature, NMR analyses were repeated. Compound 1 was instead dissolved in a DMSO-d6/DMEM-d 4:1 v/v solution (0.7 mL; [Ru] = approx. 3 × 10^–3 M) containing Me2SO2 as the internal standard.[115] The percentage of the starting complex + related aquo complex was calculated by the relative integral with respect to Me2SO2 (δ/ppm = 3.16 in DMSO-d6/DMEM-d 1:4 and 1:3 v/v; δ/ppm = 2.95 in DMSO-d6/DMEM-d 4:1 v/v).

518A2 = experiment: MTT antiproliferative assay; format: cell-based, human; settings: 72 h, mean ± SD
Procedure: (§1) All of the cell lines were cultivated in DMEM medium (high glucose 4.5 g L^–1, PAA, Pasching, Austria) supplemented with gentamycin (50 μg mL^–1, Serva, Heidelberg, Germany) and 10% heat-inactivated fetal bovine serum (PAA). The medium for MRC5pd30 cells was further supplemented by 1% nonessential amino acids (Sigma-Aldrich, Prague, Czech Republic). All cells were cultured as adherent monolayers in a humidified incubator at 37 °C in a 5% CO2 atmosphere and subcultured twice a week with an appropriate plating density.
(§2) In vitro antiproliferative activity of Ru complexes was determined by the MTT or, alternatively, SRB assay as already described,[84] after 72 h of incubation of cells with various concentrations of the Ru complex. The reported IC50 values are an average of three independent experiments, each consisting of three replicates per concentration.

HCT116 [5] = experiment: MTT antiproliferative assay; format: cell-based, human; settings: 72 h, mean ± SD
Procedure: as §1, §2

HeLa = experiment: MTT antiproliferative assay; format: cell-based, human; settings: 72 h, mean ± SD
Procedure: as §1, §2

MCF-7 = experiment: MTT antiproliferative assay; format: cell-based, human; settings: 72 h, mean ± SD
Procedure: as §1, §2

RD = experiment: MTT antiproliferative assay; format: cell-based, human; settings: 72 h, mean ± SD
Procedure: as §1, with “density. In vitro antiproliferative activity of Ru complexes was determined by the MTT or, alternatively, SRB assay as already described,[84] after 72 h of incubation of cells with various concentrations of the Ru complex. The reported IC50 values are an average of three independent experiments, each consisting of three replicates per concentration.” for “density.”

MRC5pd30 = experiment: MTT assay on noncancerous cells; format: cell-based, human; settings: 72 h, mean ± SD
Procedure: as §1, §2

[6] = test system: cancer cell lines (MCF-7, HeLa, 518A2, HCT116, RD) vs noncancerous MRC-5pd30; experiment: MTT panel: average IC50 of cancer cell lines and selectivity index; format: cell-based, human
Procedure: as §2

HCT116 [7] = experiment: SRB antiproliferative assay; format: cell-based, human; settings: SRB test, 72 h; mean ± SD
Procedure: as §2

HCT116 cells = experiment: Cellular uptake of Ru (ICP-MS); format: cell-based, human; settings: HCT116, 15 μM, 24 h; mean ± SEM
Procedure: In these experiments, 1 × 10^6 HCT116 cells were seeded on 100 mm Petri dishes. After overnight preincubation in a drug-free medium, the cells were treated with the Ru complexes (15 μM) for 24 h. Afterward, the cells were extensively washed with PBS (37 °C), detached using 0.25% trypsin, washed twice with ice-cold PBS, and counted by an automatic cell counter. The cell pellets were digested using a microwave acid (HCl) digestion system (CEM Mars). The quantity of Ru taken up by the cells was determined by inductively coupled plasma mass spectrometry (ICP-MS). All experiments were carried out in triplicate.

[8] = parameters: method as in doi:10.1021/acs.organomet.9b00813; settings: UV-Vis measurements; cited from earlier work

Substance	solubility [1]	log Pow [2]	Aquo species % in D2O after 48h ([3]; 48 h at 37 °C) [%]	residual complex % in D2O ([3]; after 48 h at 37 °C, sum of chloro and aquo complexes) [%]	Aquo species % in D2O at t0 ([3]; t0 = after 2 h stirring in D2O) [%]	Aquo species % in DMEM-d/DMSO-d6 at t0 ([4]; DMSO-d6-DMEM-d 1:4 v/v) [%]	Aquo species % in DMEM-d/DMSO-d6 after 24h ([4]; DMSO-d6-DMEM-d 1:4 v/v, 37 °C) [%]	residual complex % in DMEM-d/DMSO-d6 ([4]; DMSO-d6/DMEM-d 1:4 v/v, after 24 h at 37 °C, sum of chloro and aquo complexes) [%]	IC50 (518A2) [µM]	IC50 (HCT116 [5]) [µM]	IC50 (HeLa) [µM]	IC50 (MCF-7) [µM]	IC50 (RD) [µM]	IC50 (MRC5pd30) [µM]	SI (selectivity index) ([6]; IC50 for noncancerous MRC-5pd30 vs the average IC50 value of cancer cell lines)	IC50 ([6]; average of IC50 values related to cancer cell lines) [µM]	IC50 (HCT116 [7]) [µM]	Accumulation of ruthenium, ng Ru/10^6 cells (HCT116 cells) [ng Ru/10^6 cells]	LogPow [8]
[RuCl(κ^3-tpm)(PPh3){NNH(CH)3}]Cl [compound 5]	3.4 10^–3 mol·L^–1	–0.05 ± 0.05	88	100	25	0	50	98	31 ± 3	30 ± 2	54 ± 6	32 ± 5	23 ± 2	63 ± 4	1.9	34 ± 3.6	20 ± 3	58.4 ± 3.0	–
[Fe2Cp2(CO)(μ-CO){μ-η^1:η^3-C(3-C6H4OH)CHCNMe2}]CF3SO3 [[FeFe]^+[CF3SO3]^–]	–	–	–	–	–	–	–	–	–	–	–	–	–	–	–	–	–	–	−0.34
